These results are taken from patent US20250179022A1, “COMPOUND USED AS TYK2 INHIBITOR, PREPARATION METHOD THEREFOR, AND PHARMACEUTICAL USE THEREOF” (SHANGHAI ZHIGEN PHARMACEUTICAL & TECHNOLOGY CO. LTD., priority 2022, published 2025).

Data set [1] is described as follows: In vivo pharmacokinetic experiment in rats (oral). On the set-up: species or system SD rats. To be noted: 5 mg/kg. The method, then:
Experimental method: Healthy male SD rats were randomly grouped into 3 rats in each group and given the test compound orally. The rats were fasted for 12 h before the gavage experiment, and drank water freely, and were fed uniformly for 4 h after the administration of the compounds. Before (0 h) and 0.25, 0.5, 1.0, 2.0, 4.0, 6.0, 8.0 and 24 h after the administration of the test compounds, 0.2 mL of blood was collected from the jugular vein at the above set time points and placed in EDTA-K2 tubes, and the whole blood was collected and stored temporarily in an ice-water bath, and then centrifuged at 11,000 rpm for 5 min within 30 min, the plasma was separated, and frozen at −70° C. in a refrigerator for testing.

The nature of data set [2]: In vivo pharmacokinetic experiments in Beagle dogs (oral). The following applies: 2 mg/kg. The method, then: Experimental Methods: Healthy male Beagle dogs were randomly grouped into 3 […] in each group, and were given the test compounds orally. Before the gavage experiment, the dogs were fasted for 12 h, drank water freely, and were uniformly fed for 4 h after the administration of the drug. 0.083, 0.25, 0.5, 1.0, 2.0, 4.0, 6.0, 8.0, 10 and 24 h after administration; about 600 μL of blood was collected from the forelimb or hindlimb at the above set time points and placed in EDTA-K2 tubes, and the whole blood was collected and stored temporarily in an ice-water bath, and then centrifuged at least 3500 rpm for 10 min within 30 min, and the plasma was separated and frozen in a −70° C. refrigerator for testing.

The structures appear in SMILES notation.

As to `[2H]C([2H])([2H])NC(=O)c1nnc(NC(=O)C2CC2)cc1Nc1nc(N)c(Cl)cc1[S@@](C)(=O)=NC` [Example 28], in data set [1], the AUC came to 2644 ngh/mL and the F was 103.8%. In data set [1] (male, SD, rat, plasma), this compound had a Cmax of 0.651 µg/mL, a mean residence time (MRT) of 3.54 h and a half-life of 2.48 h. In data set [2], this compound showed an AUC of 6684 ngh/mL and an F of 117%. In data set [2] (male, dog, plasma), this compound gave a peak concentration (Cmax) of 0.485 µg/mL, an MRT of 10.7 h and a half-life of 7.26 h.
